Data on twelve compounds can be found in ChEMBL document CHEMBL1201862, “PubChem BioAssay data set” (2004).

What all share (assay): NCI-60 cell line screen, 48 h
Test [1] deals with SK-MEL-5.
The subject of test [2] is HOP-92.
Test [3] has as its system MOLT-4.
The subject of test [4] is OVCAR-3.
In test [5] the test system is M14.
In test [6] the test system is K562.
Test [7] deals with NCI-H460.
Test [8] has as its system HT-29.
In test [9] the test system is HCT-116.
The test system of test [10] is UO-31.
Test [11] has as its system EKVX.
Test [12] has as its system SF-295.
In test [13] the test system is IGROV-1.
Test [14] relates to CAKI-1.
The subject of test [15] is LOX IMVI.
In test [16] the test system is DU-145.
The subject of test [17] is T47D.
In test [18] the test system is MCF7.
Test [19] concerns MDA-N.

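The compound was tested at five concentrations on cells cultured in 96-well plates, with a 48-hour exposure period. At the GI50, growth is halved.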 Activity calls are given as the source filed them. Cut-off read from the data, not from the text of the source: active = GI50 up to about 1.1 µM and inactive = higher.

With `Cc1cccc(NC(=O)c2cc3cc(/N=N/c4ccccc4Cl)ccc3oc2=O)c1`, the GI50 was 19.8 µM (inactive) in test [1]; 33.3 µM (inactive) in [2]; 22.8 µM (inactive) in test [3]; 26.8 µM (inactive) in test [4]; 26.8 µM (inactive) in [5]; 61 µM (inactive) in test [6]. In addition, the GI50 is 27 µM (inactive) in test [7]; 38.2 µM (inactive) in test [8]; 23.7 µM (inactive) in test [9]; 13.3 µM (inactive) in [10]; 53.1 µM (inactive) in test [11]; 40 µM (inactive) in [12]. Also, the values for the GI50 in test [13], in test [14] and in test [15] were 32.1 µM (inactive), 41.1 µM (inactive) and 10.4 µM (inactive), respectively.

As for `CCCCCCCCCCCCCCCCCCNc1nc(=O)n(C2CC(OP(=O)(O)OCC3OC(n4cc(F)c(=O)[nH]c4=O)CC3O)C(CO)O2)cc1F` (stereo unspecified), the GI50 was 34.7 µM (inactive) in [1]; 5.33 µM (inactive) in test [2]; 14.7 µM (inactive) in [3]; 29 µM (inactive) in [4]; 62.2 µM (inactive) in [16]; 19.5 µM (inactive) in test [5]. The GI50 in [17] was 31.2 µM (inactive); in test [6] it was 26.9 µM (inactive); in test [8], 16.6 µM (inactive); in test [9] it was 47.1 µM (inactive); in [10] it was 13.5 µM (inactive); in [11] it was > 100 µM (inactive). Also, the GI50 in test [12] is 13.5 µM (inactive); in test [18], 9.86 µM (inactive); in [13], 46.3 µM (inactive); in test [14], 26.2 µM (inactive); in test [15], 26.1 µM (inactive).

For the compound `CN1CCCc2nc3ccccc3n2C1`, the GI50 in test [1], in test [2], in [3], in test [4], in test [5] and in test [6] was > 100 µM (inactive) in each case. The GI50 in test [7], in test [8], in [9], in test [10], in test [11] and in [12] was > 100 µM (inactive) each time. Besides, the GI50 in test [13], in test [14] and in [15] was > 100 µM (inactive) in each case.

As for `O=C(COc1ccc(Cl)c(Cl)c1)N(Cc1ccccc1)Cc1ccc[n+](Cc2ccc(Cl)cc2S(=O)(=O)F)c1`, the GI50 in test [1] was 22.6 µM (inactive); in [2], 50.8 µM (inactive); in test [3] it was 21.4 µM (inactive); in test [4], 65.5 µM (inactive); in test [16], > 100 µM (inactive); in test [5], 38.5 µM (inactive). Moreover, the GI50 in test [17] is 59.7 µM (inactive); in test [6], 53 µM (inactive); in test [7], > 100 µM (inactive); in [8], > 100 µM (inactive); in test [9], > 100 µM (inactive); in test [10], > 100 µM (inactive). In addition, the GI50 in test [12] was > 100 µM (inactive); in [18] it was 46.3 µM (inactive); in test [13] it was 40.6 µM (inactive); in [14], > 100 µM (inactive).

`CC1(C#N)CC(C)(C)C(/C=C2/CC(C)(C)C(/C=C3/OC(=N)CC3(C)C)=N2)=N1` (stereo unspecified): the GI50 was 16.6 µM (inactive) in test [1]; 12 µM (inactive) in test [2]; 28.7 µM (inactive) in [3]; 20 µM (inactive) in test [4]; 33.7 µM (inactive) in [16]; 28.9 µM (inactive) in [5]. Further, the GI50 is 22.7 µM (inactive) in test [17]; 22.5 µM (inactive) in [6]; 15.8 µM (inactive) in test [7]; 27.2 µM (inactive) in [8]; 28.9 µM (inactive) in [9]; 21.7 µM (inactive) in test [11]. Besides, the GI50 in [12] was 23.7 µM (inactive); in test [18], 12.3 µM (inactive); in [13], 17.6 µM (inactive); in test [19], 31.4 µM (inactive); in test [14] it was 40 µM (inactive); in test [15] it was 36.2 µM (inactive).

On to `N#C/C(=C\c1ccccc1Br)C(=O)c1ccccc1`, for which the GI50 in test [1] is 16.5 µM (inactive); in test [2] it was > 100 µM (inactive); in [3], 12.2 µM (inactive); in test [4], > 41.1 µM (inactive); in test [5] it was > 34.8 µM (inactive); in test [6] it was 0.55 µM (active). In addition, the GI50 was > 92.9 µM (inactive) in test [7]; > 57.7 µM (inactive) in test [8]; 2.81 µM (inactive) in [9]; > 38.5 µM (inactive) in test [10]; > 100 µM (inactive) in test [11]; 31 µM (inactive) in test [12]. The results for the GI50 in test [13], in test [14] and in test [15] were > 10 µM (inactive), > 71.8 µM (inactive) and 11.8 µM (inactive), respectively.

In the case of `CCSc1[nH]c(/N=C(/NC(=O)c2ccccc2)NC(C)C)c(C(N)=O)c1C(N)=O`, the GI50 in test [1], in [2], in [3], in [16], in [5] and in test [17] was > 10 µM (inactive) throughout. For the same compound, the GI50 in [6], in [8], in test [11], in test [12], in test [18] and in test [13] was > 10 µM (inactive) each time. Further, the GI50 in [19], in test [14] and in test [15] was > 10 µM (inactive) in each case.

In the case of `Cc1cc(N(CCC#N)CCC#N)ccc1/C=C1/CN(N2C(=O)/C(=C/c3ccc(N(CCC#N)CCC#N)cc3C)N=C2c2ccccc2)C(c2ccccc2)=N1`, the GI50 in test [1] is > 100 µM (inactive); in test [2], 44.6 µM (inactive); in test [3], > 100 µM (inactive); in [4], > 100 µM (inactive); in test [5] it was 90.4 µM (inactive); in test [6] it was > 100 µM (inactive). The GI50 in test [7] was > 100 µM (inactive); in test [8], > 100 µM (inactive); in test [9], > 100 µM (inactive); in [10], > 100 µM (inactive); in test [11], > 100 µM (inactive); in test [12], 48.8 µM (inactive). Also, the GI50 in test [13], in test [14] and in [15] was > 100 µM (inactive) in each case.

As for `COC(=O)C1CCc2nnc(-c3ccccc3)n21` (stereo unspecified), the GI50 in [1], in [2], in test [3], in [4], in [5] and in [6] was > 100 µM (inactive) in each case. Moreover, the GI50 in [7], in test [8], in [9], in [10], in test [11] and in test [12] was > 100 µM (inactive) each time. The GI50 in [13], in test [14] and in test [15] was > 100 µM (inactive) each time.

Take `CCC(=O)C(C)C(=O)C(=O)C(=O)OC` (stereo unspecified): the GI50 in test [1] was > 100 µM (inactive); in test [2], > 100 µM (inactive); in test [3], > 51.4 µM (inactive); in [4], > 100 µM (inactive); in test [5] it was > 100 µM (inactive); in [6], > 66.1 µM (inactive). Also, the GI50 was > 100 µM (inactive) in test [7]; 97.1 µM (inactive) in [8]; > 62.8 µM (inactive) in [9]; > 100 µM (inactive) in test [10]; > 100 µM (inactive) in test [11]; > 100 µM (inactive) in test [12]. Moreover, the GI50 in test [13] is > 100 µM (inactive); in test [14] it was > 100 µM (inactive); in test [15] it was > 80.7 µM (inactive).

In the case of `CCCOc1ccc(/C(Cl)=C(\C=O)c2ccc(OC)c(OC)c2)cc1OCCC`, the GI50 in [1] was 10 µM (inactive); in test [2], 18 µM (inactive); in [3] it was 2.31 µM (inactive); in test [4], 23.9 µM (inactive); in test [5], 12.7 µM (inactive); in test [6] it was 6.1 µM (inactive). Besides, the GI50 is 7.1 µM (inactive) in [7]; 5.2 µM (inactive) in test [8]; 2.64 µM (inactive) in test [9]; 17.6 µM (inactive) in [10]; 10.9 µM (inactive) in test [11]; 13.7 µM (inactive) in [12]. The GI50 in test [13] is 27.9 µM (inactive); in test [14], 75.3 µM (inactive); in test [15], 10.5 µM (inactive).

For `COC(=O)CCSC(=O)Nc1ccc(/N=N/c2ccccc2)cc1`, the GI50 is 51.9 µM (inactive) in test [1]; 95.7 µM (inactive) in [2]; 27.2 µM (inactive) in [3]; 29.5 µM (inactive) in test [4]; 70 µM (inactive) in test [5]; 45.8 µM (inactive) in test [6]. In addition, the GI50 in test [7] is 31.6 µM (inactive); in test [8], 68.5 µM (inactive); in [9], 59.3 µM (inactive); in test [10], 51.3 µM (inactive); in [11], 39.5 µM (inactive); in test [12], 47.9 µM (inactive). Also, the GI50 was 56.9 µM (inactive) in test [13], 98.4 µM (inactive) in [14] and 40.5 µM (inactive) in test [15].
